Measured values published in PMC8617031, “Development of a BCL-xL and BCL-2 dual degrader with improved anti-leukemic activity,” (Nature Communications, 2021).
pKi: −log10 of the molar value. Values joined by “and” are separate entries in the source; they are usually repeats but may differ in a detail not shown here. Equal entries are not always repeated. Where two headings read alike, the source gives them in different places.

Molecular target: T1, His-tagged BCL-xL (Homo sapiens, UniProt Q07817)
T1 construct: purchased Sigma-Aldrich SRP0187
T1 sequence (Q07817 whole entry): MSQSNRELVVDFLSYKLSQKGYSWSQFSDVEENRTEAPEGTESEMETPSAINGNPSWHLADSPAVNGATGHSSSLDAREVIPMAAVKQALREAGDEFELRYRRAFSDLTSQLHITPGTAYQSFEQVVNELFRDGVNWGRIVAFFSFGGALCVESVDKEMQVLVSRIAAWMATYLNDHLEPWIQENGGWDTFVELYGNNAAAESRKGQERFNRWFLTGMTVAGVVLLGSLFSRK
Assay: AlphaScreen competitive binary binding, BCL-xL (biotin-BAD peptide)
Conditions: for inhibition at 0.0012207 µM / inhibition at 0.00488281 µM / inhibition at 0.0195312 µM / inhibition at 0.078125 µM / inhibition at 0.3125 µM / inhibition at 1.25 µM / inhibition at 5 µM: read-out: Alpha signal normalised to Maximum/Minimum (inhibition); for pKi: BCL-xL
Procedure: The reagents were diluted in a buffer containing 250 mM HEPES pH 7.5, 1 M NaCl, 1% BSA, and 0.05% Tween-80. His-tagged BCL-xL (0.5 nM, Cat. No. SRP0187, Sigma-Aldrich) or BCL-2 (1 nM, Cat. No. SRP0186, Sigma-Aldrich) were incubated with serial diluted 753a or 753b and 2 nM biotin-tagged BAD (biotin-[…] amino-terminal, AnaSpec, for BCL-xL) or 10 nM BIM peptides (biotin-[…] N-terminal, AnaSpec, for BCL-2) to a final volume of 40 µl in a 96-well PCR plate. […] After incubation for 2 h, 5 µl 6× His-acceptor beads (Cat. No. AL128M, PerkinElmer) were added to each well at 20 µg/ml final concentration and incubated for 1 h. Then 5 µl streptavidin-donor beads were added (Cat. No. 6760002, PerkinElmer) to each well at 20 µg/ml final concentration and incubated for 45 min. At the end of the incubation period, 17 µl of each sample was transferred in adjacent wells of 384-well proxy plate (Cat. No. 6008280, PerkinElmer). The plate was scanned using the Alpha program on Biotek’s Synergy Neo2 multimode plate reader. The inhibition constant (Ki) was calculated using the non-linear regression, one site, competitive binding, Fit Ki function on GraphPad Prism 9 software, based on experimentally determined dissociation constant (Kd) for each protein–peptide pair.

- inhibition at 0.0012207 µM (BCL-xL Rep-1, 0.0012207 uM): 21.3%
- Alpha signal normalised to Maximum/Minimum (inhibition) (BCL-xL Rep-1, 0.00488281 uM, 0.00488281 µM): 23.949
- inhibition at 0.00488281 µM (BCL-xL Rep-1, 0.00488281 uM): 23.9%
- Alpha signal normalised to Maximum/Minimum (inhibition) (BCL-xL Rep-1, 0.0195312 uM, 0.0195312 µM): 38.2381
- inhibition at 0.0195312 µM (BCL-xL Rep-1, 0.0195312 uM): 39%
- Alpha signal normalised to Maximum/Minimum (inhibition) (BCL-xL Rep-1, 0.078125 uM, 0.078125 µM): 43.5761
- inhibition at 0.078125 µM (BCL-xL Rep-1, 0.078125 uM): 42.3%
- Alpha signal normalised to Maximum/Minimum (inhibition) (BCL-xL Rep-1, 0.3125 uM, 0.3125 µM): 88.5079
- inhibition at 0.3125 µM (BCL-xL Rep-1, 0.3125 uM): 85.7%
- Alpha signal normalised to Maximum/Minimum (inhibition) (BCL-xL Rep-1, 1.25 uM, 1.25 µM): 97.7177
- inhibition at 1.25 µM (BCL-xL Rep-1, 1.25 uM): 96.9%
- Alpha signal normalised to Maximum/Minimum (inhibition) (BCL-xL Rep-1, 5 uM, 5 µM): 99.5511
- inhibition at 5 µM (BCL-xL Rep-1, 5 uM): 99.5%
- Alpha signal (raw counts) (BCL-xL Rep-1, plate row B, 5 uM): 27230 and 26015
- Alpha signal (raw counts) (BCL-xL Rep-1, plate row C, 1.25 uM): 64394 and 52279
- Alpha signal (raw counts) (BCL-xL Rep-1, plate row D, 0.3125 uM): 224421 and 184214
- Alpha signal (raw counts) (BCL-xL Rep-1, plate row E, 0.078125 uM): 846185 and 827887
- Alpha signal (raw counts) (BCL-xL Rep-1, plate row F, 0.0195312 uM): 894074 and 904357
- Alpha signal (raw counts) (BCL-xL Rep-1, plate row G, 0.00488281 uM): 1110366 and 1109056
- Alpha signal (raw counts) (BCL-xL Rep-1, plate row H, 0.0012207 uM): 1147150 and 1196559
- Alpha signal (raw counts) (BCL-xL Rep-1, plate row I, 0.000305176 uM): 1192890 and 1163311
- Alpha signal (raw counts) (BCL-xL Rep-1, plate row J, 7.62939e-5 uM): 1153277 and 1055277
- Alpha signal (raw counts) (BCL-xL Rep-1, plate row K, 1.90735e-5 uM): 1140776 and 1328684
- Alpha signal (raw counts) (BCL-xL Rep-2, 7.62939e-5 uM): 1377571 and 1338961
- Alpha signal normalised to Maximum/Minimum (inhibition) (BCL-xL Rep-2, 0.0012207 uM, 0.0012207 µM): 12.2985
- inhibition at 0.0012207 µM (BCL-xL Rep-2, 0.0012207 uM): 16.2%
- Alpha signal normalised to Maximum/Minimum (inhibition) (BCL-xL Rep-2, 0.00488281 uM, 0.00488281 µM): 25.1578
- inhibition at 0.00488281 µM (BCL-xL Rep-2, 0.00488281 uM): 22.8%
- Alpha signal normalised to Maximum/Minimum (inhibition) (BCL-xL Rep-2, 0.0195312 uM, 0.0195312 µM): 25.456
- inhibition at 0.0195312 µM (BCL-xL Rep-2, 0.0195312 uM): 35.3%
- Alpha signal normalised to Maximum/Minimum (inhibition) (BCL-xL Rep-2, 0.078125 uM, 0.078125 µM): 57.5037
- inhibition at 0.078125 µM (BCL-xL Rep-2, 0.078125 uM): 60.5%
- Alpha signal normalised to Maximum/Minimum (inhibition) (BCL-xL Rep-2, 0.3125 uM, 0.3125 µM): 86.3518
- inhibition at 0.3125 µM (BCL-xL Rep-2, 0.3125 uM): 86.5%
- Alpha signal normalised to Maximum/Minimum (inhibition) (BCL-xL Rep-2, 1.25 uM, 1.25 µM): 97.814
- inhibition at 1.25 µM (BCL-xL Rep-2, 1.25 uM): 98.7%
- Alpha signal normalised to Maximum/Minimum (inhibition) (BCL-xL Rep-2, 5 uM, 5 µM): 100.647
- inhibition at 5 µM (BCL-xL Rep-2, 5 uM): 100%
- Alpha signal (raw counts) (BCL-xL Rep-2, plate row B, 5 uM): 20174 and 14292
- Alpha signal (raw counts) (BCL-xL Rep-2, plate row C, 1.25 uM): 40445 and 53326
- Alpha signal (raw counts) (BCL-xL Rep-2, plate row D, 0.3125 uM): 209031 and 211248
- Alpha signal (raw counts) (BCL-xL Rep-2, plate row E, 0.078125 uM): 567789 and 608705
- Alpha signal (raw counts) (BCL-xL Rep-2, plate row F, 0.0195312 uM): 914961 and 1050246
- Alpha signal (raw counts) (BCL-xL Rep-2, plate row G, 0.00488281 uM): 1086158 and 1054354
- Alpha signal (raw counts) (BCL-xL Rep-2, plate row H, 0.0012207 uM): 1178429 and 1231525
- Alpha signal (raw counts) (BCL-xL Rep-2, plate row I, 0.000305176 uM): 1409371 and 1266044
- Alpha signal (raw counts) (BCL-xL Rep-2, plate row K, 1.90735e-5 uM): 1319490 and 1464517
- pKi (mean of the two replicate values (line without label)): 8.40
- pKi (second value (line without label below Rep-1, apparently Rep-2)): 8.60
SMILES: Cc1ncsc1-c1ccc([C@H](C)NC(=O)[C@@H]2C[C@@H](O)CN2C(=O)[C@@H](NC(=O)CCCCCC(=O)N2CCN(CC[C@H](CSc3ccccc3)Nc3ccc(S(=O)(=O)NC(=O)c4ccc(N5CCN(CC6=C(c7ccc(Cl)cc7)CCC(C)(C)C6)CC5)cc4)cc3S(=O)(=O)C(F)(F)F)CC2)C(C)(C)C)cc1 [DT2216]
